ChEMBL document CHEMBL1201862, “PubChem BioAssay data set” (2004)
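Cultured in 96-well plates, cells were exposed to test compound for 48 hours across five concentrations. Abbreviation: GI50, concentration required for 50% inhibition of growth.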 Activity calls are given as the source filed them. Rule as the data show it: active = GI50 up to about 1.1 µM and inactive = higher.

Legend:
Assay in all cases: inhibition of tumour cell growth, NCI panel, 48 h
A498 = system: A498
ACHN = system: ACHN
BT-549 = system: BT-549
EKVX = system: EKVX
HCC 2998 = system: HCC 2998
HT-29 = system: HT-29
K562 = system: K562
NCI-H226 = system: NCI-H226
NCI-H23 = system: NCI-H23
NCI-H460 = system: NCI-H460
NCI-H522 = system: NCI-H522
NCI/ADR-RES = system: NCI/ADR-RES
SK-MEL-5 = system: SK-MEL-5
SN12C = system: SN12C
SW-620 = system: SW-620
DU-145 = system: DU-145
LOX IMVI = system: LOX IMVI
786-0 = system: 786-0
HL-60 = system: HL-60

Structure (SMILES) | GI50 (A498) | GI50 (ACHN) | GI50 (BT-549) | GI50 (EKVX) | GI50 (HCC 2998) | GI50 (HT-29) | GI50 (K562) | GI50 (NCI-H226) | GI50 (NCI-H23) | GI50 (NCI-H460) | GI50 (NCI-H522) | GI50 (NCI/ADR-RES) | GI50 (SK-MEL-5) | GI50 (SN12C) | GI50 (SW-620) | GI50 (DU-145) | GI50 (LOX IMVI) | GI50 (786-0) | GI50 (HL-60)
CN1CCOC(c2ccc(Cl)cc2)O1 (stereo unspecified) | > 100 µM (inactive) | > 100 µM (inactive) | > 100 µM (inactive) | > 100 µM (inactive) | > 100 µM (inactive) | > 100 µM (inactive) | > 100 µM (inactive) | > 100 µM (inactive) | > 100 µM (inactive) | > 100 µM (inactive) | > 100 µM (inactive) | > 100 µM (inactive) | > 100 µM (inactive) | > 100 µM (inactive) | > 100 µM (inactive) |  |  |  | 
Cc1ccc(C2C(C(=O)C(C)(C)C)N2S(=O)(=O)c2ccc(C)cc2)cc1 (stereo unspecified) |  |  | 17.7 µM (inactive) | 15.7 µM (inactive) | 19.1 µM (inactive) | 24.3 µM (inactive) | 25.3 µM (inactive) | 21.3 µM (inactive) | 23.7 µM (inactive) |  | 16.1 µM (inactive) | 23.4 µM (inactive) |  | 19.8 µM (inactive) | 26.8 µM (inactive) | 18.7 µM (inactive) | 22.4 µM (inactive) |  | 
C[C@@H]1OC(=O)/C(=C\N(C)C)[C@H]2CC(=O)N(CCc3cn(S(=O)(=O)C(F)(F)F)c4ccccc34)C[C@H]12 | > 100 µM (inactive) | > 100 µM (inactive) | > 100 µM (inactive) | > 100 µM (inactive) | > 100 µM (inactive) |  | > 100 µM (inactive) | > 100 µM (inactive) | > 100 µM (inactive) | > 100 µM (inactive) | > 100 µM (inactive) | > 100 µM (inactive) | > 100 µM (inactive) | > 100 µM (inactive) | > 100 µM (inactive) |  | > 100 µM (inactive) | > 100 µM (inactive) | 
CCOC(=O)c1ccc(/N=c2/[nH]c3ccccc3s/c2=N/c2ccc(C(=O)OCC)cc2)cc1 | 82 µM (inactive) | 29.1 µM (inactive) |  | > 100 µM (inactive) | > 100 µM (inactive) | 70.3 µM (inactive) | > 100 µM (inactive) | > 100 µM (inactive) | > 100 µM (inactive) | 40.6 µM (inactive) | 5.24 µM (inactive) | 88.9 µM (inactive) | > 100 µM (inactive) | > 100 µM (inactive) | > 100 µM (inactive) | > 100 µM (inactive) | > 100 µM (inactive) | 25.4 µM (inactive) | > 100 µM (inactive)
COc1cc([C@@H]2c3cc4c(cc3[C@@H](/N=C/c3ccc(C(=O)O[C@@H](C(=O)O[C@H]5C[C@@]6(O)[C@@H](OC(=O)c7ccccc7)[C@@H]7[C@]8(OC(C)=O)CO[C@@H]8C[C@H](O)[C@@]7(C)C(=O)[C@H](OC(C)=O)C(=C5C)C6(C)C)[C@@H](NC(=O)c5ccccc5)c5ccccc5)cc3)[C@H]3COC(=O)[C@H]23)OCO4)cc(OC)c1O | 0.133 µM (active) | 5.08 µM (inactive) |  | 5.93 µM (inactive) | 0.0189 µM (active) | 0.0103 µM (active) | < 0.005 µM (active) | 0.075 µM (active) | 0.869 µM (active) | 0.00929 µM (active) | 0.0138 µM (active) | > 46 µM (inactive) | 0.0154 µM (active) | 0.0393 µM (active) | 0.0297 µM (active) | 0.0261 µM (active) | 0.11 µM (active) | 0.0748 µM (active) | 0.0149 µM (active)
O=C(OCc1c(-c2ccccc2)nn(-c2ccccc2)c1COC(=O)Oc1ccccc1)Oc1ccccc1 | > 100 µM (inactive) | > 100 µM (inactive) |  | > 100 µM (inactive) | > 100 µM (inactive) | > 100 µM (inactive) | > 100 µM (inactive) | > 100 µM (inactive) | > 100 µM (inactive) | > 100 µM (inactive) | > 100 µM (inactive) | > 100 µM (inactive) | 31.8 µM (inactive) | > 100 µM (inactive) | > 100 µM (inactive) | > 100 µM (inactive) | > 100 µM (inactive) | > 100 µM (inactive) | > 100 µM (inactive)
S=C1C(CCCOCc2ccccc2)C2CCCC23CC2(CCN13)OCCS2 (stereo unspecified) | > 10 µM (inactive) | > 10 µM (inactive) |  | > 10 µM (inactive) | > 10 µM (inactive) | > 10 µM (inactive) | > 10 µM (inactive) | > 10 µM (inactive) | > 10 µM (inactive) | > 10 µM (inactive) | > 10 µM (inactive) | > 10 µM (inactive) | > 10 µM (inactive) | > 10 µM (inactive) | > 10 µM (inactive) | > 10 µM (inactive) | > 10 µM (inactive) | > 10 µM (inactive) | > 10 µM (inactive)
O=P1(c2ccccc2)C2=CCC=CC2C(c2ccccc2)N1Cc1ccccc1 (stereo unspecified) |  | 16.7 µM (inactive) | 17.4 µM (inactive) | 14 µM (inactive) |  | 11.6 µM (inactive) | 16.1 µM (inactive) |  | 12.3 µM (inactive) | 13 µM (inactive) | 11.4 µM (inactive) | 14.5 µM (inactive) | 15.2 µM (inactive) | 15.6 µM (inactive) | 21 µM (inactive) | 17.5 µM (inactive) |  | 15.5 µM (inactive) | 20.4 µM (inactive)
